The results in this text go back to US20240270751A1, “Pyrazolopyridinone Compounds” (BeiGene Ltd., priority 2021, published 2024).

Assay [1] deals with DGKζ (Homo sapiens (Human), UniProt Q13574). In words: Biochemical DGK IC50 assay, DGKζ ADP-Glo assay. The settings on record: 0.5 nM enzyme, 140 μM ATP, 80 μM DAG; read-out: DGKζ ADP-Glo assay IC50. An outline of the steps: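 Full-length human DGKζ, His-TEV tagged and purified from baculovirus-infected Sf9 cells, assayed by ADP-Glo with DAG/PS lipid micelle substrate prepared in 25 mM HEPES pH 7.0 with octyl glucoside. Final compound concentrations spanned 1.55–10000 nM or 23.3–150000 nM.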
In general terms: ADP-Glo first removes unused ATP, then detects ADP through luciferase.

In assay [2] the target is DGKα (Homo sapiens (Human), UniProt P23743). In words: Biochemical DGK IC50 assay, DGKα ADP-Glo assay. The settings on record: 7.5 nM enzyme, 140 μM ATP, 80 μM DAG. An outline of the steps:
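ADP-Glo read-out with full-length DGKα on DAG/PS lipid micelle substrate in 25 mM HEPES pH 7.0, 0.5 mM EDTA, 160 mM octyl β-D-glucopyranoside. Compound final concentrations spanned 1.55˜10000 nM or 23.3˜150000 nM.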

Chain of DGKζ (Q13574 other isoform, or with tags, fused parts or gaps): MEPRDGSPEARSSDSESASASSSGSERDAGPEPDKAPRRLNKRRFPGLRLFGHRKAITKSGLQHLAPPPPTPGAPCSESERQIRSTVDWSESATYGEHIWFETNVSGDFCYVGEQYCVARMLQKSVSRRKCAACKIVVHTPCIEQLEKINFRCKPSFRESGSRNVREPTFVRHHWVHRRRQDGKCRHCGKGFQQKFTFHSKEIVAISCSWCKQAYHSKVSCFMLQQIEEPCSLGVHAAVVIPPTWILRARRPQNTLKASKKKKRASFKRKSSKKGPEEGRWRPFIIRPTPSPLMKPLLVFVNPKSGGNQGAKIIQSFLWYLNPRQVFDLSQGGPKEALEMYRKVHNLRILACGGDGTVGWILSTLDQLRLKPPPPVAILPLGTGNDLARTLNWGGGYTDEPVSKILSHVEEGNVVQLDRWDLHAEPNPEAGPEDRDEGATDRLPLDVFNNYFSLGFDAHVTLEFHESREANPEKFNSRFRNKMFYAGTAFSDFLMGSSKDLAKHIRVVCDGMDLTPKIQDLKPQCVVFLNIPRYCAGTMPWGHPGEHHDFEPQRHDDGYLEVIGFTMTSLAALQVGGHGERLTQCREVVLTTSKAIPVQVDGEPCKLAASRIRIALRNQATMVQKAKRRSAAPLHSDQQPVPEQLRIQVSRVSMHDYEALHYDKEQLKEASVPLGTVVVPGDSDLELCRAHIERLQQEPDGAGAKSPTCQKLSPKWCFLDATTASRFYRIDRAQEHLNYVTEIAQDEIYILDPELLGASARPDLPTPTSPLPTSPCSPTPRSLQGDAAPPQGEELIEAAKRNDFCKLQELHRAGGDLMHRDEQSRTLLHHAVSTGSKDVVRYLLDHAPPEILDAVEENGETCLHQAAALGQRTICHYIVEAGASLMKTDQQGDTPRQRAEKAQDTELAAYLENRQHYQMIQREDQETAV
Chain of DGKα (P23743 whole entry): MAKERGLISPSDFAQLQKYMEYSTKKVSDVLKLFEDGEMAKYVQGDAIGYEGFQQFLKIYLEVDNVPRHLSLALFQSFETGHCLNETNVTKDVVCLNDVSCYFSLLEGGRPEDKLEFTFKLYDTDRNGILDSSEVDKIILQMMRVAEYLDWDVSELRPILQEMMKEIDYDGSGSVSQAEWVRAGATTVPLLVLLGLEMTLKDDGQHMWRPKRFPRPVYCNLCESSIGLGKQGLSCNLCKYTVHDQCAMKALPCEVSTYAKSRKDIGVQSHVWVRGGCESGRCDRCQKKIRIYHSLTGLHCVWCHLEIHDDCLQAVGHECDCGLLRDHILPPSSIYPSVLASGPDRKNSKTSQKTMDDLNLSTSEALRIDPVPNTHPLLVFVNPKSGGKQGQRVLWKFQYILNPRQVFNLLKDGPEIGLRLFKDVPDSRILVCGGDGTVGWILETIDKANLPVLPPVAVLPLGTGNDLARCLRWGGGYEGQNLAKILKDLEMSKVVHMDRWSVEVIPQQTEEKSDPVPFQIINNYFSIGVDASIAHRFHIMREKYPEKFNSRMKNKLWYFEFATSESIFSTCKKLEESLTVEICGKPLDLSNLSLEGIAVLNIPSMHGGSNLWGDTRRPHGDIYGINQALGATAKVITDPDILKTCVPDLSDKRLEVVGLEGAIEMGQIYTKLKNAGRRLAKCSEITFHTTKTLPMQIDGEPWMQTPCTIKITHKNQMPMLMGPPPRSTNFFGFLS

As a reminder, the IC50 is the concentration that inhibits the measured activity by half. `CC[C@H]1CN(C(C)c2ccc(F)cc2C(=O)OC)[C@H](CC)CN1c1cc(=O)n(C)c2cn(CC#N)nc12` (stereo partly drawn) [Compound A290]: the values for the IC50 in assay [1] and in assay [2] were 425 nM and 56400 nM, respectively.
`CC[C@H]1CN(C(C)c2ccc(Cl)cc2C(F)(F)F)[C@H](CC)CN1c1cc(=O)n(C)c2cn(CC#N)nc12` (stereo partly drawn) [Compound A277]: the half-maximal inhibitory concentration (IC50) in assay [1] was 2110 nM; in assay [2], more than 10000 nM.
The like results for `CC[C@H]1CN(C(C)c2ccc(F)cc2C(F)(F)F)[C@H](CC)CN1c1cc(=O)n(C)c2cn(CC#N)nc12` (single isomer, unassigned) [Compound A196a] were, in that order, 1350 nM and more than 10000 nM.
The like results for `CC[C@H]1CN(C(C)c2ccc(F)c(OC)c2)[C@H](CC)CN1c1cc(=O)n(C)c2cn(CC#N)nc12` (stereo partly drawn) [Compound A82] were, in that order, 90 nM and 1020 nM.
The matching figures for `Cc1ccc(C(c2ccc(C)cc2)N2C[C@H](C)N(c3cc(=O)n(C)c4cn(CC#N)nc34)C[C@H]2C)cc1` [Compound A333]: 210 nM and 10600 nM.
Turning to `CC[C@H]1CN(C(C)c2ccc(C(F)(F)F)cc2OC)[C@H](CC)CN1c1cc(=O)n(C)c2cn(CC#N)nc12` (stereo partly drawn) [Compound A157], the results for the IC50 in assay [1] and in assay [2] were 1030 nM and 2990 nM, respectively.
Regarding `CC[C@H]1CN(C(C)c2ncc(C(F)(F)F)cc2F)[C@H](CC)CN1c1cc(=O)n(C)c2cn(CC#N)nc12` (single isomer, unassigned) [Compound A354b], the figures for the IC50 in assay [1] and in assay [2] were 260 nM and 130 nM, respectively.
The matching figures for `CC[C@H]1CN(C(C(=O)NCCOC)c2ccc(C(F)(F)F)cc2)[C@H](CC)CN1c1cc(=O)n(C)c2cn(CC#N)nc12` (stereo partly drawn) [Compound A296, 2-((2R,5S)-4-(2-(cyanomethyl)-4-methyl-5-oxo-4,5-dihydro-2H-pyrazolo[4,3-b]pyridin-7-yl)-2,5-diethylpiperazin-1-yl)-N-(2-methoxyethyl)-2-(4-(trifluoromethyl)phenyl)acetamide]: 189 nM and 3900 nM.
In the case of `CC[C@H]1CN(C(C)c2cc3ccccn3n2)[C@H](CC)CN1c1cc(=O)n(C)c2cn(CC#N)nc12` (stereo partly drawn) [Compound A389], the results for the half-inhibitory concentration (IC50) in assay [1] and in assay [2] were 201 nM and 43 nM, respectively.
The like results for `CC(c1ccc2ccc(C#N)cc2c1)N1C[C@H](C)N(c2cc(=O)n(C)c3cn(CC#N)nc23)C[C@H]1C` (stereo partly drawn) [Compound A307] were, in that order, 1750 nM and 2470 nM.
The like results for `CC[C@H]1CN(C(C)c2ccc(F)cc2NC)[C@H](CC)CN1c1cc(=O)n(C)c2cn(CC#N)nc12` (stereo partly drawn) [Compound A163] were, in that order, 4420 nM and more than 10000 nM.
The matching figures for `CC[C@H]1CN(C2CCc3ccccc32)[C@H](CC)CN1c1cc(=O)n(C)c2cn(CC#N)nc12` (single isomer, unassigned) [Compound A149b]: 2250 nM and 191 nM.
For the compound `CC[C@H]1CN(C(C)c2cnc3ccccc3n2)[C@H](CC)CN1c1cc(=O)n(C)c2cn(CC#N)nc12` (single isomer, unassigned) [Compound A155a], the values for the IC50 in assay [1] and in assay [2] were 1380 nM and 728 nM, respectively.
As to `CC[C@@H]1CN(c2cc(=O)n(C)c3cn(CC#N)nc23)[C@@H](CC)CN1Cc1ccc(F)cc1` [Compound A70], the IC50 in assay [1] stood at 640 nM; in assay [2], 38 nM.
The matching figures for `C=CCn1cc2c(n1)c(N1C[C@@H](C)N(C(C)c3ccc4nccnc4c3)C[C@@H]1C)cc(=O)n2C` (single isomer, unassigned) [Compound A299, 2-allyl-7-((2S,5R)-2,5-dimethyl-4-((S)-1-(quinoxalin-6-yl)ethyl)piperazin-1-yl)-4-methyl-2,4-dihydro-5H-pyrazolo[4,3-b]pyridin-5-one, or 2-allyl-7-((2S,5R)-2,5-dimethyl-4-((R)-1-(quinoxalin-6-yl)ethyl)piperazin-1-yl)-4-methyl-2,4-dihydro-5H-pyrazolo[4,3-b]pyridin-5-one]: 90 nM and 66100 nM.
The like results for `CC#CCn1cc2c(n1)c(N1C[C@@H](CC)N(C(C)c3ccc(C(F)(F)F)cc3F)C[C@@H]1CC)cc(=O)n2C` (single isomer, unassigned) [Compound A334a] were, in that order, 978 nM and 308 nM.
As to `CC[C@@H]1CN(c2cc(=O)n(C)c3cn(CC#N)nc23)[C@@H](C)CN1C(C)c1ccc(F)cc1OC` (stereo partly drawn) [Compound A137, 2-(7-((2S,5R)-5-ethyl-4-(1-(4-fluoro-2-methoxyphenyl)ethyl)-2-methylpiperazin-1-yl)-4-methyl-5-oxo-4,5-dihydro-2H-pyrazolo[4,3-b]pyridin-2-yl)acetonitrile], the IC50 in assay [1] is 106 nM; in assay [2] it was more than 10000 nM.
The like results for `CC[C@H]1CN(C(C)c2ccc(F)cc2OC)[C@H](CC)CN1c1cc(=O)n(CCO)c2cn(CC#N)nc12` (single isomer, unassigned) [Compound A153a] were, in that order, 9340 nM and more than 10000 nM.
Consider `CC[C@H]1CN(C(C)c2cnc3ccccc3n2)[C@H](CC)CN1c1cc(=O)n(C)c2cn(CC#N)nc12` (stereo partly drawn) [Compound A55], for which the half-maximal inhibitory concentration (IC50) worked out at 9 nM in assay [1] and 22 nM in assay [2].
With `CC[C@H]1CN(C(C)c2cc3ccccc3n2CC)[C@H](CC)CN1c1cc(=O)n(C)c2cn(CC#N)nc12` (stereo partly drawn) [Compound A176], the IC50 is 93 nM in assay [1] and 5670 nM in assay [2].
The matching figures for `CC[C@H]1CN(C(C)c2ccc(C)cc2)[C@H](CC)CN1c1cc(=O)n(C)c2cn(CC#N)nc12` (single isomer, unassigned) [Compound A127b]: 3710 nM and 177 nM.
The like results for `CC[C@H]1CN(C(C)c2ccc3nccnc3c2)[C@H](CC)CN1c1cc(=O)n(CC(F)F)c2cn(CC#N)nc12` (single isomer, unassigned) [Compound A139a] were, in that order, 112 nM and more than 10000 nM.
With `CC[C@@H]1CN(c2cc(=O)n(C)c3cn(CC)nc23)[C@@H](C)CN1C(C)c1ccc2nccnc2c1` (single isomer, unassigned) [Compound A221b], the results for the IC50 in assay [1] and in assay [2] were more than 10000 nM and 2370 nM, respectively.
The like results for `CC#CCn1cc2c(n1)c(N1C[C@@H](C)N(C(C)c3ccc4ncc(C(F)F)nc4c3)C[C@@H]1C)cc(=O)n2C` (stereo partly drawn) [Compound A335, 2-(but-2-yn-1-yl)-7-((2S,5R)-4-(1-(3-(difluoromethyl)quinoxalin-6-yl)ethyl)-2,5-dimethylpiperazin-1-yl)-4-methyl-2,4-dihydro-5H-pyrazolo[4,3-b]pyridin-5-one] were, in that order, 142 nM and 610 nM.
The like results for `CC[C@H]1CN(C(C)c2ccccc2COC)[C@H](CC)CN1c1cc(=O)n(C)c2cn(CC#N)nc12` (stereo partly drawn) [Compound A107] were, in that order, 272 nM and more than 10000 nM.
On to `C[C@@H]1CN(c2cc(=O)n(C)c3c(C(F)(F)F)nn(CC#N)c23)[C@@H](C)CN1[C@@H](C)c1ccc2nccnc2c1` (single isomer, unassigned) [Compound A244, 2-(7-((2S,5R)-2,5-dimethyl-4-((S)-1-(quinoxalin-6-yl)ethyl)piperazin-1-yl)-4-methyl-5-oxo-3-(trifluoromethyl)-4,5-dihydro-1H-pyrazolo[4,3-b]pyridin-1-yl)acetonitrile or 2-(7-((2S,5R)-2,5-dimethyl-4-((R)-1-(quinoxalin-6-yl)ethyl)piperazin-1-yl)-4-methyl-5-oxo-3-(trifluoromethyl)-4,5-dihydro-1H-pyrazolo[4,3-b]pyridin-1-yl)acetonitrile], for which the IC50 in assay [1] and in assay [2] was more than 10000 nM throughout.
In the case of `CC[C@H]1CN(C(C)c2cccc3c2OC(F)(F)O3)[C@H](CC)CN1c1cc(=O)n(C)c2cn(CC#N)nc12` (stereo partly drawn) [Compound A66], the half-maximal inhibitory concentration (IC50) came to 409 nM in assay [1] and 9840 nM in assay [2].
The like results for `CC[C@H]1CN(C(C)c2cnc(C)cc2C(F)(F)F)[C@H](CC)CN1c1cc(=O)n(C)c2cn(CC#N)nc12` (stereo partly drawn) [Compound A235] were, in that order, 5380 nM and more than 10000 nM.
The matching figures for `CC[C@H]1CN(C(C)c2ccc(F)cc2OC(F)F)[C@H](CC)CN1c1cc(=O)n(C)c2cn(CC#N)nc12` (single isomer, unassigned) [Compound A171a]: 65 nM and 8340 nM.
The matching figures for `CC[C@H]1CN(C(C)c2ccc(Cl)cn2)[C@H](CC)CN1c1cc(=O)n(C)c2cn(CC#N)nc12` (single isomer, unassigned) [Compound A360a]: 3800 nM and 142 nM.
Consider `CC[C@H]1CN(C(C)c2ccc(F)cc2OC(F)F)[C@H](CC)CN1c1cc(=O)n(C)c2cn(CC#N)nc12` (single isomer, unassigned) [Compound A171b], for which the IC50 is 1360 nM in assay [1] and more than 10000 nM in assay [2].
In the case of `CC(c1ccc2c(c1)OC1(CC1)CO2)N1C[C@H](C)N(c2cc(=O)n(C)c3cn(CC#N)nc23)C[C@H]1C` (stereo partly drawn) [Compound A323, 2-(7-((2S,5R)-4-(1-(3H-spiro[benzo[b][1,4]dioxine-2,1′-cyclopropan]-7-yl)ethyl)-2,5-dimethylpiperazin-1-yl)-4-methyl-5-oxo-4,5-dihydro-2H-pyrazolo[4,3-b]pyridin-2-yl)acetonitrile], the figures for the IC50 in assay [1] and in assay [2] were 7 nM and 10700 nM, respectively.
The matching figures for `CC[C@H]1CN([C@H](C)c2nc3ncccc3n2CC)[C@H](CC)CN1c1cc(=O)n(C)c2cn(CC#N)nc12` (single isomer, unassigned) [Compound A215a]: more than 10000 nM and more than 10000 nM.
